Experimental data taken from patent US5340807A, “Tricyclic compounds and intermediates thereof” (priority 1991, dated 1994).

Tests used:
[1] = system: acyl coenzyme A: cholesterol acyltransferase (ACAT); assay: Test for ACAT inhibitory activity (microsome fraction prepared from rabbit liver); format: biochemical; settings: 10^-6 M, 37° C., 10 minutes
Protocol: Test for ACAT inhibitory activity The test for ACAT inhibitory activity was performed by a modified method of the method of Brecher et al. Biochim. Biophys. […] The radioactivity of the cholesterol ester spot was determined by a liquid scintillation counter. The radio-activity for each test compound was calculated by the difference between the radioactivity with the microsome fraction and the radioactivity without the microsome fraction. The radioactivity of control was determined in a similar manner without any test compound.

male ddy strain mice = assay: Test for acute toxicity (minimum lethal dose, oral); format: in vivo; settings: mortality observed seven days after administration
Protocol: Groups of 3 male ddy strain mice weighing 20±1 g were used. The test compounds were orally administered. Seven days after administration, the mortality was observed and the minimum lethal dose (MLD) was determined.

serum cholesterol level = assay: Inhibition effect on serum cholesterol level in hamster with dietary hyperlipemia; format: in vivo; settings: Golden hamster, 2% cholesterol feed for 3 days; 30 mg/kg orally once a day
Protocol: Inhibition effect on serum cholesterol level in hamster with dietary hyperlipemia
Golden hamster (SLC, male, age of 6 weeks) was made free access to feed containing 2% cholesterol for 3 days. Each test compound was suspended in olive oil and orally administered once a day in a dose of 30 mg/kg during the feeding. (A: Test Group administered with the test compound, B: Control Group administered with olive oil only). In Group C, feed free from cholesterol was fed for 3 days. On the fourth day, blood sample was collected from the descending aorta under pentobarbital anesthesia and cholesterol level in serum was determined. The total cholesterol level in serum of each group was determined and the inhibition rate for the test compound was calculated according to the following equation. [formula]

Compound | Inhibiting rate(%) of ACAT [1] | Acute Toxicity (MLD), minimum lethal dose (male ddy strain mice) | Inhibition Rate (%) of total cholesterol level in serum (serum cholesterol level)
Cc1ccc(C)c2c1OCc1ccccc1C2C(=O)Nc1c(C(C)C)cccc1C(C)C (stereo not drawn) [Compound 49, 6,11-Dihydro-N-(2,6-diisopropylphenyl)-1,4-dimethyldibenz[b,e]oxepin-11-carboxamide] | 97% | – | –
CC(C)c1cccc(C(C)C)c1NC(=O)C1c2ccccc2COc2ccc(F)cc21 (stereo not drawn) [Compound 16, 2-Fluoro-6,11-dihydro-N-(2,6-diisopropylphenyl)dibenz[b,e]-oxepin-11-carboxamide] | 81% | > 300 mg/kg | –
O=C(Nc1c(Cl)cccc1Cl)C1c2ccccc2COc2cc(Br)ccc21 (stereo not drawn) [Compound 28, 3-Bromo-N-(2,6-dichlorophenyl)-6,11-dihydrodibenz[b,e]oxepin-11-carboxamide] | 52% | > 300 mg/kg | –
CC(C)c1cccc(C(C)C)c1NC(=O)C1c2ccccc2COc2ccc(Cl)cc21 (stereo not drawn) [Compound 17, 2-Chloro-6,11-dihydro-N-(2,6-diisopropylphenyl)dibenz[b,e]-oxepin-11-carboxamide] | 94% | > 300 mg/kg | –
CC(C)c1cccc(C(C)C)c1NC(=O)C1c2ccccc2COc2ccc(Br)cc21 (stereo not drawn) [Compound 18, 2-Bromo-6,11-dihydro-N-(2,6-diisopropylphenyl)dibenz[b,e]-oxepin-11-carboxamide] | 100% | > 300 mg/kg | 114%
Cc1cc2c(c(C)c1Br)C(C(=O)Nc1c(C(C)C)cccc1C(C)C)c1ccccc1CO2 (stereo not drawn) [Compound 56, 2-Bromo-6,11-dihydro-N-(2,6-diisopropylphenyl)-1,3-dimethyldibenz[b,e]oxepin-11-carboxamide] | 99% | – | –
CC(C)c1cccc(C(C)C)c1NC(=O)C1c2ccccc2COc2cc(Br)ccc21 (stereo not drawn) [Compound 29, 3-Bromo-6,11-dihydro-N-(2,6-diisopropylphenyl)dibenz[b,e]-oxepin-11-carboxamide] | 86% | > 300 mg/kg | –
CCc1cccc(CC)c1NC(=O)C1c2ccccc2COc2ccc(C)cc21 (stereo not drawn) [Compound 3, N-(2,6-Diethylphenyl) -6,11-dihydro-2-methyldibenz[b,e]-oxepin-11-carboxamide] | 77% | > 300 mg/kg | –
CCc1cccc(CC)c1NC(=O)C1c2ccccc2COc2c(C)ccc(C)c21 (stereo not drawn) [Compound 50, 6,11-Dihydro-N-(2,6-diethylphenyl) -1,4-dimethyldibenz[b,e]-oxepin-11-carboxamide] | 93% | – | –
Cc1ccc2c(c1)C(C(=O)Nc1c(C)cccc1C)c1ccccc1CO2 (stereo not drawn) [Compound 2, 6,11-Dihydro-2-methyl-N-(2,6-dimethylphenyl) dibenz[b,e]-oxepin-11-carboxamide] | 66% | – | –
COC(=O)c1cc(C)cc2c1OCc1ccccc1C2C(=O)Nc1c(C(C)C)cccc1C(C)C (stereo not drawn) [Compound 51, Methyl 6,11-dihydro-11-(2,6-diisopropylphenyl)aminocarbonyl-2-methyldibenz[b,e]oxepin-4-carboxylate] | 99% | – | –
Cc1cc(C)c2c(c1)OCc1ccccc1C2C(=O)Nc1c(C(C)C)cccc1C(C)C (stereo not drawn) [Compound 62, 6,11-Dihydro-N-(2,6-diisopropylphenyl)-1,3-dimethyldibenz-[b,e]oxepin-11-carboxamide] | 100% | – | –
CCc1cccc(CC)c1NC(=O)C1c2ccccc2COc2cc(C)c(Br)c(C)c21 (stereo not drawn) [Compound 57, 2-Bromo-N-(2,6-diethylphenyl)-6,11-dihydro-1,3-dimethyldibenz[b,e]oxepin-11-carboxamide] | 98% | – | –
Cc1cc(Cl)c2c(c1C)C(C(=O)Nc1c(C(C)C)cccc1C(C)C)c1ccccc1CO2 (stereo not drawn) [Compound 59, 4-Chloro-6,11-dihydro-N-(2,6-diisopropylphenyl)-1,2-dimethyldibenz[b,e]oxepin-11-carboxamide] | 100% | – | –
CC(C)c1cccc(C(C)C)c1NC(=O)C1c2cc(Br)ccc2OCc2ncccc21 (stereo not drawn) [Compound 42] | 91% | – | –
CC(C)c1cccc(C(C)C)c1NC(=O)C1c2ccccc2COc2c1cc(Br)cc2N(C)C.Cl (stereo not drawn) [Compound 55, 2-Bromo-6,11-dihydro-N-(2,6-diisopropylphenyl)-4-dimethylaminodibenz[b,e]oxepin-11-carboxamide hydrochloride] | 100% | – | –

Compound | Inhibiting rate(%) of ACAT [1] | Acute Toxicity (MLD), minimum lethal dose (male ddy strain mice) | Inhibition Rate (%) of total cholesterol level in serum (serum cholesterol level)
COC(=O)c1ccc2c(c1)C(C(=O)Nc1c(C(C)C)cccc1C(C)C)c1ccccc1CO2 (stereo not drawn) [Compound 24, 6,11-Dihydro-N-(2,6-diisopropylphenyl)-2-methoxycarbonyl-dibenz[b,e]oxepin-11-carboxamide] | 90% | > 300 mg/kg | –
CC(C)c1cccc(C(C)C)c1NC(=O)C1c2ccccc2COc2ccc(C(F)(F)F)cc21 (stereo not drawn) [Compound 20, 6,11-Dihydro-N-(2,6-diisopropylphenyl) -2-trifluoromethyldibenz[b,e]oxepin-11-carboxamide] | 84% | > 300 mg/kg | 63%
O=C(Nc1c(Cl)cccc1Cl)C1c2ccccc2COc2ccc(Br)cc21 (stereo not drawn) [Compound 39, 2-Bromo-N-(2,6-dichlorophenyl)-6,11-dihydrodibenz[b,e]oxepin-11-carboxamide] | 91% | – | –
CSc1cc(C(C)C)c(NC(=O)C2c3ccccc3COc3ccc(C)cc32)c(C(C)C)c1 (stereo not drawn) [Compound 30, 6,11-Dihydro-N-(2,6-diisopropyl-4-methylthiophenyl)-2-methyldibenz[b,e]oxepin-11-carboxamide] | 78% | – | –
CC(C)c1cccc(C(C)C)c1NC(=O)C1c2ccccc2COc2ccc(C#N)cc21 (stereo not drawn) [Compound 23, 2-Cyano-6,11-dihydro-N-(2,6-diisopropylphenyl)dibenz[b,e]-oxepin-11-carboxamide] | 69% | > 300 mg/kg | –
Cc1ccc2c(c1)C(C(=O)Nc1c(C(C)C)cccc1C(C)C)c1ccccc1CC2 (stereo not drawn) [Compound 68, 10,11-Dihydro-N-(2,6-diisopropylphenyl)-3-methyl-5H-dibenz[a,d]cyclohepten-5-carboxamide] | 99% | – | –
Cc1cc(Br)c2c(c1)C(C(=O)Nc1c(C(C)C)cccc1C(C)C)c1ccccc1CO2 (stereo not drawn) [Compound 21, 4-Bromo-6,11-dihydro-N-(2,6-diisopropylphenyl) -2-methyldibenz[b,e]oxepin-11-carboxamide] | – | – | 67%
Cc1ccc(Cl)c2c1C(C(=O)Nc1c(C(C)C)cccc1C(C)C)c1ccccc1CO2 (stereo not drawn) [Compound 64, 4-Chloro-6,11-dihydro-N-(2,6-diisopropylphenyl) -1-methyldibenz[b,e]oxepin-11-carboxamide] | 100% | – | –
CC(C)c1cccc(C(C)C)c1NC(=O)C1c2ccccc2CCc2cc(Br)ccc21 (stereo not drawn) [Compound 69, 2-Bromo-10,11-dihydro-N-(2,6-diisopropylphenyl) -5H-dibenz[a,d]cyclohepten-5-carboxamide] | 98% | – | –
CC(C)c1cccc(C(C)C)c1NC(=O)C1c2ccccc2COc2c1cc(Br)cc2[N+](=O)[O-] (stereo not drawn) [Compound 53, 2-Bromo-6,11-dihydro-N-(2,6-diisopropylphenyl)-4-nitrodibenz[b,e]oxepin-11-carboxamide] | 100% | – | –
Cc1ccc2c(c1)C(C(=O)Nc1ccccc1C(C)C)c1ccccc1CO2 (stereo not drawn) [Compound 5, 6,11-Dihydro-N-(2-isopropylphenyl)-2-methyldibenz[b,e]-oxepin-11-carboxamide] | 56% | > 300 mg/kg | –
CC(C)c1cccc(C(C)C)c1NC(=O)C1c2ccccc2COc2ccc(Br)cc21 (single isomer, unassigned) [Compound 61, (+) -2-Bromo-6,11-dihydro-N-(2,6-diisopropylphenyi)dibenz[b,e]oxepin-11-carboxamide] | 92% | – | –
Cc1cc2c(cc1C)C(C(=O)Nc1c(C(C)C)cccc1C(C)C)c1ccccc1CO2 (stereo not drawn) [Compound 48, 6,11-Dihydro-N-(2,6-diisopropylphenyl)-2,3-dimethyldibenz[b,e]oxepin-11-carboxamide] | 96% | – | –
CC(C)c1cccc(C(C)C)c1NC(=O)C1c2ccccc2COc2ccc(Br)cc21 (single isomer, unassigned) [Compound 60, (-) -2-Bromo-6,11-dihydro-N-(2,6-diisopropylphenyl) dibenz[b,e]oxepin-11-carboxamide] | 99% | – | –
CSc1cc(C(C)C)c(NC(=O)C2c3ccccc3COc3ccc(Br)cc32)c(C(C)C)c1 (stereo not drawn) [Compound 44, 2-Bromo-6,11-dihydro-N-(2,6-diisopropyl-4-methylthiophenyl)dibenz[b,e]oxepin-11-carboxamide] | 95% | – | –
CCc1cccc(CC)c1NC(=O)C1c2ccccc2COc2ccc(Br)cc21 (stereo not drawn) [Compound 27, 2-Bromo-N-(2,6-diethylphenyl)-6,11-dihydrodibenz[b,e]oxepin-11-carboxamide] | 80% | > 300 mg/kg | –
